According to patent publication US9096544B2, “Therapeutic compounds” (Wayne State University, priority 2009, dated 2015):
Converted amounts (≈) assume the structure as drawn. Read-outs that look alike come from different tables or passages of the source.

Assays:
[1] = Test H: aqueous solubility by UV absorbance; type: physicochemical; conditions: for solubility: 22° C.
Protocol: Standard curves at the UV λmax (330, 350 and 345 nm for 3-Cl-AHPC, 18 and 16, respectively) were generated using 0.245, 0.163, 0.049 and 0.025 mM 3-Cl-AHPC and 0.380, 0.178, 0.053 and 0.027 mM 18 and 16, which were prepared from 1.0% (wt/vol) solutions of compounds in Me2SO. […] Measurements for maximum solubilities in distilled water (pH 5) and phosphate-buffered saline (PBS, pH 7.2) at 22° C. were made by UV absorbance using solutions obtained after saturation at higher temperatures, overnight incubation at 22° C., and centrifugation to remove undissolved material.

[2] = system: pancreatic cancer stem cells (CD44+/CD24+ cells obtained from PANC-1, Capan-2 and MiaPaCa-2 cells); experiment: Test J: spheroid formation by CD44+/CD24+ pancreatic cancer stem cells; type: cell-based
Protocol: Apoptosis and Growth Inhibition of Pancreatic Cancer Stem Cells (Obtained from PANC-1, Capan-2 and MiaPaCa-2 Cells) by Compound 16 and 3-Cl-AHPC.
Cells were grown to 70-80% confluence and then trypsinised and washed with sorting buffer (1×PBS, 5% FCS). The cells were resuspended with […] sorting buffer and incubated with 15-20 μl anti-CD24-FITC, anti-CD44-PE primary antibodies for 30 min at ice. The cells were washed and resuspended in 500 μl of sorting buffer and sorted using FACSAria system (BD Immunocytochemistry Systems, Franklin lakes, NJ).
The sorted CD44^+/CD24^+ cells were suspended in serum-free stem cell medium containing DMEM/F12 (1:1) supplemented with B27 (Life Technologies, Gaithersburg, Md.), 20 ng/ml EGF (Biomol International, Plymouth, Pa.)), 20 ng/ml fibroblast growth factor (Biomol International, Plymouth, Pa.), and 100 μg/ml gentamycin. Approximately 150-200 cells per well were seeded in an ultra low-attachment 96-well plate (Corning Inc, Lowell, Mass.). 3-Cl-AHPC and compound 16 were added the day after cells were plated or after 7 days of spheroid formation. Spheriods were photographed and measured utilizing a Olympus microscope (OLYMPUS CKX41) and Olympus microscope digital camera with DP2-BSW software (Olympus soft imaging solutions GmbH, Germany).

[3] = system: FFMA-AML cells; experiment: Test D: inhibition of FFMA-AML growth in NOD-SCID mice (survival); type: in vivo
Protocol: FIG. 6 illustrates 3-Cl-AHPC and compound 16 inhibition of FFMA-AML cell proliferation in NOD-SCID mice and prolongation of their survival. A) Sixteen NOD-SCID mice, which had been randomized into two groups of eight each, were injected through the tail vein with 1×10^6 FFMA-AML cells. Intravenous injection of vehicle or 3-Cl-AHPC (30 mg/kg) twice daily for 4 days was instituted 24 h later. B) An identical study was performed with the exception that 3-Cl-AHPC was administered interperitoneally. C) Twenty four NOD-SCID mice were randomized into three groups of eight. […] The mice were monitored for toxicity and survival.
Non-obese diabetic-severe combined immunodeficiency (NOD-SCID) and ICR-SCID mice were obtained from Jackson Laboratories (Bar Harbor, Me.) and Taconic Farms (Germantown, N.Y.), respectively. A) FFMA-AML and TF(v-SRC) systemic models: NOD-SCID and ICR-SCID mice (4 to 5 weeks old) were injected with either FFMA-AML or TF(v-SRC) cells intravenously. Treatment with either vehicle, 3-Cl-AHPC or compound 16 (the compound of Example 1) was instituted the following day. Once symptoms such as diarrhea, dehydration, weight loss, ascites, paralysis or general weakness became evident, mice were euthanized. B) TF(v-SRC) subcutaneous mouse model. ICR-SCID mice were trocared subcutaneously bilaterally with TF(v-SRC) tumor fragments. Animals with equal tumor weights determined as described previously (Zhang Y. et al., Blood. 2002; 100:2917-2925) were assigned to three experimental arms: 1) control (vehicle treated), 2) subcutaneously treated with compound 16, and 3) intravenously treated with compound 16. The percent increase in the host life-span (% ILS) of the FFMA-AML and TF(v-SRC) bearing mice was calculated by subtracting the […] divided by the median day of death of the AML-bearing vehicle treated mice. In order to determine the efficacy of the 3-Cl-AHPC and compound 16, survival distribution of the 3-Cl-AHPC or compound 16-treated (T) or vehicle (C) groups were compared using the log-rank test. Survival was characterized as the duration of the animal's life span 24 h after the initiation of the xenograft until an observed event (euthanasia or death). A p-value of less than 5% (p<0.05) was considered statistically significant.
The ability of 3-Cl-AHPC and compound 16 to inhibit the growth of FFMA-AML cells in NOD-SCID mice was determined. NOD-SCID mice randomly assigned to two groups of eight mice each were injected with 1 million cells through the tail vein. The mice then received either vehicle or 3-Cl-AHPC (30 mg/kg) given intravenously twice daily for 4 days. […]

[4] = system: caspase-3; experiment: Caspase-3 activation and cleavage in AML cells; type: cell-based; conditions: FFMA-AML and TF(vSRC) cells; 1 μM; lysates
Protocol: FIG. 4 illustrates 3-Cl-AHPC and compound 16-mediated caspase-3 activation and cleavage of caspase-3. A) Activation of caspase-3 in FFMA-AML and TF(vSRC) cells following exposure to 1 μM 3-Cl-AHPC and compound 16 for varying times. B) Generation of the caspase-3 (17 kDa) fragment and caspase-3 protein levels (α-tubulin used as loading control). Columns represent mean of three independent experiments. […] (p value is <0.01 as determined by t test).
To further document 3-Cl-AHPC and compound 16-mediated apoptosis in the FFMA-AML and TF(v-SRC) cells, cells were exposed to 1 μM 3-Cl-AHPC or compound 16 for varying times, and then annexin V-FITC binding assessed using flow cytometry.

With O=C(O)C=Cc1ccc(-c2ccc(O)c(C34CC5CC(CC(C5)C3)C4)c2)c(Cl)c1 [Compound 3-Cl-AHPC, 4-[3-(1-adamantyl)-4-hydroxyphenyl]-3-chlorocinnamic acid, reference compound] as the compound, how does the “Solubility (μM) at 22° C. PBS (pH 7.2)” value ([1]; PBS pH 7.2) read?
Its value is “Not detectable”.

What about the solubility ([1]; thermodynamic from solid, distilled water pH 5, read-out: Solubility (μM) at 22° C. Distilled water (pH 5)) of the same compound?
The solubility was 4.5 µM (≈ 1.84 µg/mL).

And the “spheroid formation by CD24+/CD44+ cells” value [2]?
Its value is “inhibited their ability to form spheroids”.

What about the “increase in the length of survival over vehicle” value ([3]; 30 mg/kg intravenously twice daily for 4 days, p value 0.0001) of the same compound?
Its value is 25%.

What about the “toxicity in treated mice” value ([3]; 3-Cl-AHPC 30 mg/kg twice daily for 4 days) of the same compound?
Its value is “toxicity including weight loss and decreased physical activity”.

What about the “caspase-3 activation (17-kDa cleaved caspase-3, caspase-3 activity)” value [4] of the same compound?
The value was “induced caspase-3 activation”.

Which solubility ([1]; distilled water pH 5, read-out: Solubility (μM) at 22° C. Distilled water (pH 5)) does the source give for O=C(O)/C=C/c1cnc(-c2ccc(O)c(C34CC5CC(CC(C5)C3)C4)c2)nc1 [Compound 16, (E)-3-[2-(3-(1-Adamantyl)-4-hydroxyphenyl)-5-pyrimidinyl]-2-propenoic acid] here?
The solubility was 54 µM (≈ 20.3 µg/mL).

What about the solubility ([1]; phosphate-buffered saline, aqueous buffer, thermodynamic from solid, PBS pH 7.2, read-out: Solubility (μM) at 22° C. PBS (pH 7.2)) of the same compound?
The solubility was 440 µM (≈ 166 µg/mL).

What about the “spheroid formation by CD24+/CD44+ cells” value [2] of the same compound?
The value was “inhibited their ability to form spheroids”.

And the “increase in survival (ILS)” value ([3]; 5.0 mg/kg or 7.5 mg/kg twice a day for 4 days, tail vein, p=0.0002)?
The value was 26%.

And the “toxicity in treated mice” value ([3]; compound 16 5.0 or 7.5 mg/kg twice a day)?
The value was “extremely well tolerated and no toxicity was noted”.

And the “caspase-3 activation (17-kDa cleaved caspase-3, caspase-3 activity)” value [4]?
Its value is “induced caspase-3 activation”.
